Target: Keap1/Nrf2 (Homo sapiens, UniProt Q14145)
Assay: Inhibition of Keap1 Kelch domain (unknown origin)/FITC-labelled-9mer Nrf2 (unknown origin) protein-protein interaction incubated for 30 mins by fluorescence polarisation assay

Chain of Keap1/Nrf2 (Q16236 whole entry, the tested form may be a part): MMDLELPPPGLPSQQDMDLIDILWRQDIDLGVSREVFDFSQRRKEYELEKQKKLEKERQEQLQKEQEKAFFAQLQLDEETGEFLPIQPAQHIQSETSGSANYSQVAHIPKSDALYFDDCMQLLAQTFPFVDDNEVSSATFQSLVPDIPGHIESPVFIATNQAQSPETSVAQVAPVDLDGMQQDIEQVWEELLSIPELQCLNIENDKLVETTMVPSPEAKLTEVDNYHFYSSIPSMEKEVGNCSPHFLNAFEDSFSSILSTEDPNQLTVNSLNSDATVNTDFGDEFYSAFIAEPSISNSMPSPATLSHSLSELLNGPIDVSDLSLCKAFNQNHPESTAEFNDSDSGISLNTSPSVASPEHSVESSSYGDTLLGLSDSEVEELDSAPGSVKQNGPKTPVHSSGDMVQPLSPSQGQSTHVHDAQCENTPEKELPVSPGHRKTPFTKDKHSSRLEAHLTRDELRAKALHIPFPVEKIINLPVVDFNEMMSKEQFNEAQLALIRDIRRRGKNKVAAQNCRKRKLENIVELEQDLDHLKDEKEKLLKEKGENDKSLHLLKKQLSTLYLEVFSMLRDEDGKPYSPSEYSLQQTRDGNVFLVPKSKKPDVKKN
Chain of Keap1/Nrf2 (Q14145 whole entry, the tested form may be a part): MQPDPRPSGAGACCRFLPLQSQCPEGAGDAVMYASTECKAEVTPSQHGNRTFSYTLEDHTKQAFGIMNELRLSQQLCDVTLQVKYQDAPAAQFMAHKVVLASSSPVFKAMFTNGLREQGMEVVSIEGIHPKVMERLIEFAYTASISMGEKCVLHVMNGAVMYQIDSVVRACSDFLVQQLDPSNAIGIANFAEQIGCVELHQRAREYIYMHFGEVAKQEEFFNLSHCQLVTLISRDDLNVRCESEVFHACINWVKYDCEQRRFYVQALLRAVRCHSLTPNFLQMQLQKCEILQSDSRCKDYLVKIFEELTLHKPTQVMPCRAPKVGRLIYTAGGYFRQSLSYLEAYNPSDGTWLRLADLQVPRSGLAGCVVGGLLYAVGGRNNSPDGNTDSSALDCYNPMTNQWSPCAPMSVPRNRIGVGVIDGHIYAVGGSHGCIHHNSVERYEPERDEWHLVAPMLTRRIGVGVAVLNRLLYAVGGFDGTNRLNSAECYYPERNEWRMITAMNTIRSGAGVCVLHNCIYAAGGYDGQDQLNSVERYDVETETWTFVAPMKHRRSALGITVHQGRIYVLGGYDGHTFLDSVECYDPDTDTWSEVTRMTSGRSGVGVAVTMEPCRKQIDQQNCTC

## COc1ccc(S(=O)(=O)Nc2ccc(NS(=O)(=O)c3cccnc3)cc2)cc1
  IC50: 31.5 µM
